Data: US9408926B2, “KDR and VEGF/KDR binding peptides and their use in diagnosis and therapy” (Bracco Suisse S.A., priority 2002, dated 2016)

What was measured:
[1] = tested on: VEGF-induced peritoneal vascular permeability; experiment: Blocking VEGF-enhanced peritoneal vascular permeability (Evan's Blue); type: in vivo, mice; settings: 20 μM with […] VEGF165 i.p.
Procedure: Male balb/c nu/nu mice were injected intraperitoneally with 2 mL vehicle (1% bovine serum albumin in 95% saline/5% DMSO), vehicle+1.2 nM VEGF165, or vehicle+1.2 nM VEGF165+20 μM D10. Immediately after, the mice were injected with Evan's Blue Dye (0.5% in saline, 4 mL/kg) i.v. via their tail veins. After 60 min, mice were sacrificed by CO2 asphyxiation and the peritoneal fluid was retrieved. After centrifuging the samples briefly, the absorbance at 590 nm was measured for each.

PC3 cell tumors = settings: 500 microcuries of Lu-labeled D13 i.v., 18 days
Procedure: PC3 cells from ATCC, grown as recommended by the supplier, were injected subcutaneously between the shoulder blades of nude mice. When their tumors reached 100-400 mm^3, twelve mice were injected i.v. with 500 microcuries of Lu-labeled D13 and their growth monitored for an additional 18 days. Mice were sacrificed if they lost 20% or more of their body weight or their tumors exceeded 2000 mm^3. Tumor growth in the treated mice was compared with the average tumor growth in 37 untreated nude mice implanted with PC3 tumors.

[2] = biological target: KDR/VEGF complex on KDR-transfected 293H cells (Homo sapiens, UniProt P35968)
Procedure: Another stock solution was prepared in the same manner, but lacking VEGF. […] The mixtures were incubated on a rotator at 4 C for 60 minutes, followed by addition of 50 μL of soft release avidin-sepharose (50% slurry in ddH2O) to remove excess peptides and another incubation for 30 minutes on a rotator at 4 C. Finally, the soft release avidin-sepharose was pelleted by centrifuging at 12,000 rpm for 5 minutes at room temperature, and the resulting supernatants were used for the assays.
This establishes a utility for the assay as useful for targeting the KDR/VEGF complex in vitro and in vivo for diagnostic or therapeutic purposes.

[3] = tested on: VEGF-induced migration of HUVECs; experiment: VEGF-induced HUVEC migration assay; type: cell-based, human
Procedure: After 22 hours, quantitation of cell migration/invasion was achieved by post-labeling cells in the insert plates with a fluorescent dye and measuring the fluorescence of the invading/migrating cells in a fluorescent plate reader. The VEGF-induced migration was calculated by subtracting the migration that occurred when only basal medium was placed in the lower chamber of the wells.
Serum-starved HUVECs were placed, 100,000 cells per well, into the upper chambers of BD fibronectin-coated FluoroBlok 24-well insert plates. […] After 22 hours, quantitation of cell migration/invasion was achieved by post-labeling cells in the insert plates with a fluorescent dye and measuring the fluorescence of the invading/migrating cells in a fluorescent plate reader. The VEGF-induced migration was calculated for each experimental condition by subtracting the amount of migration that occurred when only basal medium was added to the lower chamber of the wells.
Serum-starved HUVECs were placed, 100,000 cells per well, into the upper chambers of BD fibronectin-coated FluoroBlok 24-well insert plates. […] After 22 hours, quantitation of cell migration/invasion was achieved by post-labeling cells in the insert plates with a fluorescent dye and measuring the fluorescence of the invading/migrating cells in a fluorescent plate reader. VEGF-induced migration was calculated for each experimental condition by subtracting the amount of migration observed in the absence of VEGF.
Serum-starved HUVECs were placed, 100,000 cells per well, into the upper chambers of BD fibronectin-coated FluoroBlok 24-well insert plates. […] After 22 hours, quantitation of cell migration/invasion was achieved by post-labeling cells in the insert plates with a fluorescent dye and measuring the fluorescence of the invading/migrating cells in a fluorescent plate reader. VEGF-stimulated migration was derived by subtracting the basal migration measured in the absence of VEGF.
Serum-starved HUVECs were placed, 100,000 cells per well, into the upper chambers of BD fibronectin-coated FluoroBlok 24-well insert plates. […] After 22 hours, quantitation of cell migration/invasion was achieved by post-labeling cells in the insert plates with a fluorescent dye and measuring the fluorescence of the invading/migrating cells in a fluorescent plate reader.

murine KDR-Fc = biological target: T1, murine KDR-Fc (Mus musculus, UniProt P35918); experiment: BIAcore kinetic analysis of binding to murine KDR-Fc
T1 construct: purchased R & D Systems (Minneapolis, Minn.) 443-KD-050
Procedure: Three densities of recombinant murine KDR-Fc were cross-linked to the dextran surface of a CM5 sensor chip by the standard amine coupling procedure (0.5 mg/mL solution diluted 1:100 or 1:40 with 50 mM acetate, pH 6.0). Flow cell 1 was activated and then blocked to serve as a reference subtraction.
All samples were injected in duplicate. For association, peptides were injected at 30 μL/min for 3 minutes using the kinject program. Following a 10 minute dissociation, any remaining peptide was stripped from the rmKDR-Fc surface with a quickinject of 50 mM NaOH+1 M NaCl for 12 s at 75 μL/min.
Sensorgrams were analyzed using the simultaneous ka/kd fitting program in the BIAevaluation software 3.1.

KDR [4] = biological target: T2, KDR (Homo sapiens, UniProt P35968); experiment: SPR analysis of dimer affinity for KDR; type: binding
KDR [5] = biological target: T2, KDR; experiment: Inhibition of VEGF-induced KDR receptor activation (phosphorylation) in HUVECs; type: cell-based; parameters: host or cells: HUVEC
Procedure: In some cases, a neutralizing anti-KDR antibody (Catalog #AF357, R&D Systems) was used as a positive control inhibitor of activation. In such cases, the antibody was pre-incubated with the test cells for 30 min at 37° C. prior to the addition of fresh medium containing both VEGF and the antibody. After incubating the dishes 5 min. in a 37° C. tissue culture incubator they were washed three times with ice-cold D-PBS containing calcium and magnesium and placed on ice without removing the last 10 mL of Delbecco's phosphate buffered saline (D-PBS). […] Another 0.5 mL of lysis buffer was used to rinse out the first dish then transferred to the second dish, which was then also scraped and dispersed. The pooled lysate from the two dishes was transferred to a 1.5 mL Eppindorf tube. The above procedure was repeated for each of the controls and test samples (KDR-binding peptides), one at a time. The lysates were stored on ice until all the samples had been processed. At this point samples were either stored at −70° C. or processed to the end of the assay without interruption.
The next day 40 μl of protein A-sepharose beads were added to the tubes that were then incubated 4 C for 1 hr. on a rotator. […] After cooling, the beads in each tube were pelleted by centrifuging and the supernatants containing the immunoprecipitated KDR were transferred to new tubes and used immediately or frozen and stored at −70 C for later analysis.
Detection of phosphorylated KDR as well as total KDR in the immunoprecipitates was carried out by immunoblot analysis.
The blots were first probed with an anti-phosphotyrosine antibody (Transduction Labs, Catalog #P11120), diluted 1:200 in 5% Blotto-TBS with 0.1% Tween 20 added for 2 hr. at room temp. […]
After 5 min of treatment, lysates were prepared from each set of dishes. KDR was immunoprecipitated from the lysates was analyzed sequentially by immunoblotting for phosphorylation with an anti-phosphotyrosine antibody, and for total KDR with an anti-KDR antibody (to control for sample loading).

[6] = vs. 2700RU murine KDR-Fc surface
[7] = vs. 5000RU murine KDR-Fc surface

## Ac-AGPTWCEDDWYYCWLFGTGGGK (SEQ ID NO:277){[Ac-GDSRVCWEDSWGGEVCFRYDPGGGK (SEQ ID NO:294) (JJ-Glut-NH(CH2)4—(S)—CH(PnAO6-Glut-NH) (C═O—)]—NH2}—NH2 [D10]
[1]
  Block of VEGF-increased dye leakage into the peritoneum: substantially blocked

## Ac-AGPTWCEDDWYYCWLFGTGGGK (SEQ ID NO:277){Ac-VCWEDSWGGEVCFRYDPGGGK (SEQ ID NO:337)[JJ-Glut-K(BOA)]—NH2}—NH2 [D13]
PC3 cell tumors
  Treated mice with significant or complete tumor growth delay: 6 of the 12

## AGPGPCKGYMPHQCWYMGTGGGK [SEQ ID NO:321]
[2]; KDR- versus mock-transfected cells
  Binding of peptide-125I-neutravidin complex in the presence of VEGF: specifically bound to KDR-transfected 293H cells
[2]; VEGF omitted
  Binding of peptide-125I-neutravidin complex in the absence of VEGF: not where VEGF was omitted

## Ac-AGPTWCEDDWYYCWLFGTGGGK (SEQ ID NO:277)[(Biotin-JJK-(O═)C(CH2)3C(═O)-JJ-NH(CH2)4—(S)—CH((Ac-VCWEDSWGGEVCFRYDPGGGK (SEQ ID NO:337))-NH)CONH2]—NH2 [D1]
[3]; 5 nM
  VEGF-stimulated endothelial cell migration blocked: 84%
[3]; 25 nM
  VEGF-stimulated endothelial cell migration blocked: almost completely blocked
[3]; 50 nM
  Inhibition of VEGF-stimulated migration: completely blocked
[3]; serum (5% FBS) used in place of VEGF
  Effect on serum-induced migration: not significantly diminished
Murine KDR-Fc; [6]
  Kd1: 0.0139 s⁻¹
  ka1: 794000 M⁻¹ s⁻¹
  ka2 (1/RUs): 3.31E−04 1/RUs
  kd2: 0.000596 s⁻¹
Murine KDR-Fc; [7]
  Kd1: 0.00888 s⁻¹
  ka1: 554000 M⁻¹ s⁻¹
  ka2 (1/RUs): 1.17E−04 1/RUs
  kd2: 0.000457 s⁻¹
KDR [4]
  Fold higher affinity for KDR than D2 (by SPR analysis): 10 fold
KDR [5]
  Fold lower IC50 than D2 in the activation assay: at least 100 fold
KDR [5]; 1 nM
  Block of VEGF-induced phosphorylation of KDR: More than half
KDR [5]; 10 nM
  Block of VEGF-induced phosphorylation of KDR: completely block
